Measurements from patent publication EP0987275B1, “Molecules that home to a selected organ or tissue in vivo” (LA JOLLA CANCER RESEARCH FOUNDATION, priority 1995, dated 2008).
Several values for one entry are separate records, joined by “and”; a condition that tells them apart may be missing. Equal entries are not always repeated. Where no end group is shown, it is not given here.

Legend:
[1] = system: Human 435 breast carcinoma cells; test: Competition of RGD phage tumor homing by coinjected free peptide; assay type: in vivo, nude mice; conditions: coinjection of 500 µg free peptide
Method: (§1) Human 435 breast carcinoma cells were inoculated into the mammary fat pad of nude mice. When the tumors attained a diameter of about 1 cm, phage expressing a specific RGD-containing peptide were administered to the tumor bearing mouse. Similar results to those discussed below also were obtained with nude mice bearing tumors formed by implantation of human melanoma C8161 cells or by implantation of mouse B16 melanoma cells.
1 x 10^9 phage expressing the RGD-containing peptide, […] (SEQ ID NO: 57; see, Koivunen et al., supra, 1995) or control (insertless) phage were injected intravenously (iv) into the mice and allowed to circulate for 4 min. The mice then were snap frozen while under anesthesia, and various organs, including tumor, brain and kidney, were removed and the phage present in the organs was quantitated (see Pasqualini and Ruoslahti, supra, 1996).

[2] = system: Human 435 breast carcinoma cells; test: In vivo targeting of phage expressing an RGD peptide to a breast tumor; set-up: species or system nude mice; conditions: for RGD phage as compared to unselected control phage accumulated in the tumor: human breast carcinoma tumors
Method: as §1
1 x 10^9 phage expressing the RGD-containing peptide, CDCRGDCFC (SEQ ID NO: 57; see, Koivunen et al., supra, 1995) or control (insertless) phage were injected intravenously (iv) into the mice and allowed to circulate for 4 min. The mice then were snap frozen while under anesthesia, and various organs, including tumor, brain and kidney, were removed and the phage present in the organs was quantitated (see Pasqualini and Ruoslahti, supra, 1996).

brain [3] = test: Specificity of brain homing of individually amplified phage (TU in brain vs kidney); assay type: in vivo, mice; conditions: individual phage, same input titer
Method: To determine the specificity of brain homing of the individual motifs identified, phage displaying the predominant motifs were amplified individually, diluted to the same input titer and administered to mice. Following administration, brain and kidney were removed and the number of TU of phage in each organ was determined. […] Specifically, the ratio of selective homing (brain:kidney) was about 8 for CNSRLHLRC (SEQ ID NO: 1) and for CLSSRLDAC (SEQ ID NO: 3), 4 for CENWWGDVC (SEQ ID NO: 2) and 9 for […] (SEQ ID NO: 16).

brain [4] = test: In vivo panning of phage peptide display libraries, brain as the selected organ (kidney control); set-up: species or system mice; conditions: phage recovered from brain; for (% PHAGE): % of the 73 clones sequenced; for # PHAGE DISPLAYING SAME A.A. SEQUENCE: second and third rounds of in vivo panning, 73 cloned phage sequenced
Method: Phage display libraries were constructed using the fuse 5 vector as described by Koivunen et al. (supra, 1995; see, also, Koivunen et al. Meth. Enzymol. 245:346-369 (1994b), which is incorporated herein by reference). Six libraries encoding peptides designated CX5C (SEQ ID NO: 36), CX6C (SEQ ID NO: 37), CX7C (SEQ ID NO: 38), CX9 (SEQ ID NO: 39), X2CX14CX2 (SEQ ID NO: 40) and X2CX18 (SEQ ID NO: 41) were prepared, where "C" indicates cysteine and "XN" indicates the given number of individually selected amino acids. These libraries can display cyclic peptides when at least two cysteine residues are present in the peptide.
Oligonucleotides were constructed such that "C" was encoded by the codon TGT and "XN" was encoded by NNK, where "N" is equal molar mixtures of A, C, G and T, and where "K" is equal molar mixtures of G and T. Thus, the peptide represented by CX5C (SEQ ID NO: 36) can be represented by an oligonucleotide having the sequence TGT(NNK)5TGT (SEQ ID NO: 42). Oligonucleotides were made double stranded by 3 cycles of PCR amplification, purified and ligated to the nucleic acid encoding the gene III protein in the fuse 5 vector such that, upon expression, the peptide is present as a fusion protein at the N-terminus of the gene III protein.
The vectors were transfected by electroporation into MC1061 cells. Bacteria were cultured for 24 hr in the presence of 20 µg/ml tetracycline, then phage were collected from the supernatant by precipitation twice using polyethylene glycol. Each library contained about 5 x 10^9 to 5 x 10^14 transducing units (TU; individual recombinant phage).
(§2) A mixture of phage libraries containing 1 x 10^14 TU was diluted in 200 µl DMEM and injected into the tail vein of anesthetized BALB\c mice (2 month old females; Jackson Laboratories; Bar Harbor ME); Avertin™ (0.015 ml/g) was used as anesthetic (see Pasqualini and Ruoslahti, supra, 1996). After 1-4 minutes, mice were snap frozen in liquid nitrogen. To recover the phage, carcasses were partially thawed at room temperature for 1 hr, organs were collected and weighed, then were ground in 1 ml DMEM-PI (DMEM containing protease inhibitors (PI); phenylmethylsulfonyl fluoride (PMSF; 1 mM), aprotinin (20 µg/ml), leupeptin (1 µg/ml)).
(§3) Organ samples were washed 3 times with ice cold DMEM-PI containing 1% bovine serum albumin (BSA), then directly incubated with 1 ml K91-kan bacteria for 1 hr. Ten ml NZY medium containing […] tetracycline (NZY/tet) was added to the bacterial culture, the mixture was incubated in a 37°C shaker for 1 hr, then 200 µl aliquots were plated in agar plates containing 40 µg/ml tetracycline (tet/agar).
(§4) Individual colonies containing phage recovered from brain or kidney were grown for 16 hr in 5 ml NZY/tet. The bacterial cultures obtained from the individual colonies were pooled and the phage were purified and re-injected into mice as described above for a second round of in vivo panning. A third round of panning also was performed. Phage DNA was purified from individual bacterial colonies obtained from the second and the third round of in vivo panning and the DNA sequences encoding the peptides expressed by selected phage were determined (see Koivunen et al., supra, 1994b).
Three rounds of in vivo panning in mice were performed. Kidney was used as a control organ. Mice were injected with two different mixtures of phage libraries. The first mixture contained libraries encoding CX9 (SEQ ID NO: 39), CX5C (SEQ ID NO: 36), CX6C (SEQ ID NO: 37) and CX7C (SEQ ID NO: 38) peptides (CX5-7/CX9 mixture; SEQ ID NOS: 36-39). The second mixture contained libraries encoding X2CX14CX2 (SEQ ID NO: 40) and X2CX18 (SEQ ID NO: 41) peptides (X2CX18/X2CX14CX2 mixture; SEQ ID NOS: 40 and 41).
The phage library mixtures were administered to mice via tail vein injection. Phage input was […] of the CX5-7/CX9 (SEQ ID NOS: 36-39) mixture or 1 x 10^14 TU of the X2CX18/X2CX14CX2 (SEQ ID NOS: 40 and 41) mixture. […]

kidney [5] = test: In vivo panning of phage peptide display libraries, kidney as the selected organ (brain control); set-up: species or system mice; conditions: phage recovered from kidney; for (% PHAGE): % of the 48 clones sequenced; for # PHAGE DISPLAYING SAME A.A. SEQUENCE: 48 cloned phage sequenced
Method: as §2, §3, §4
The same methodology used to isolate phage expressing brain homing peptides was used to isolate phage expressing peptides that home to kidney. In these experiments, brain was used as the control organ. A mixture of the CX5C (SEQ ID NO: 36) and the CX6C (SEQ ID NO: 37) libraries was administered as described above. Homing of phage to the kidney was obtained and an approximately 3x to 7x enrichment of phage homing to kidney was observed following a second round of in vivo panning.
(§5) The amino acid sequences were determined for the inserts in 48 cloned phage that homed to kidney. The peptides expressed by these phage were represented by two predominant sequences, CLPVASC (SEQ ID NO: 21; 46% of the clones sequenced) and CGAREMC (SEQ ID NO: 22; 17% of the clones; see Table 2). In addition, the peptide CKGRSSAC (SEQ ID NO: 23) appeared three times and three other peptides were present twice each.

kidney [6] = test: Selective kidney homing of individual phage (kidney vs brain); assay type: in vivo, mice
Method: as §5

[7] = system: Human 435 breast carcinoma cells; test: In vivo panning in mice bearing a human breast carcinoma tumor; set-up: species or system nude mice; conditions: phage recovered from human breast cancer after third round, 14 cloned phage; for # clones: CX3CX3CX3C library
Method: Human 435 breast carcinoma cells (Price et al., Cancer Res. 50:717-721 (1990)) were inoculated into the mammary fat pad of nude mice. When the tumors attained a diameter of about 1 cm, either a phage targeting experiment was performed, in which phage expressing a specific peptide were administered to the tumor bearing mouse, or in vivo panning was performed.
The breast tumor bearing mice were injected with 1 x 10^9 phage expressing a library of CX3CX3CX3C (SEQ ID NO: 47) peptides, where X3 indicates three groups of independently selected, random amino acids. The phage were allowed to circulate for 4 min, then the mice were anesthetized, snap frozen in liquid nitrogen while under anesthesia, and the tumor was removed. Phage were isolated from the tumor and subjected to two additional rounds of in vivo panning.
Following the third round of panning, phage were quantitated and the peptide sequences expressed by 14 different cloned phage were determined. The 14 cloned phage expressed 4 different peptides (Table 3).

melanoma = test: Immunohistochemical staining (anti-M13) for phage localization in melanoma bearing mice; assay type: in vivo; conditions: 1 x 10^9 pfu phage iv, 4 min
Method: Localization of the phage expressing a tumor homing peptide in the mouse organs was examined by immunohistochemical staining of the tumor and various other tissues. 1 x 10^9 pfu of a control (insertless) phage or a phage expressing the tumor homing peptide, CLSGSLSC ([…]), were injected, iv, into tumor bearing mice and allowed to circulate for 4 min. The mouse then was perfused with DMEM and various organs, including the tumor were removed and fixed in Bouin's solution. Histologic sections were prepared and stained using anti-M13 (phage) antibodies (see Pasqualini and Ruoslahti, supra, 1996).

[8] = system: B16B15b mouse melanoma cells; test: In vivo panning in mice bearing an implanted mouse melanoma tumor; set-up: species or system nude mice; conditions: phage recovered from B16B15b tumors; 89 cloned phage sequenced
Method: Mice bearing a melanoma were produced by implantation of B16B15b mouse melanoma cells, which produce highly vascularized tumors. B16B15b mouse melanoma cells were injected subcutaneously into the mammary fat pad of nude mice (2 months old) and tumors were allowed to grow until the diameter was about 1 cm. In vivo panning was performed as disclosed above. Approximately 1 x 10^12 transducing units of phage expressing the CX5C (SEQ ID NO: 36), CX6C (SEQ ID NO: 37) or […] library were injected, iv, and allowed to circulate for 4 min. Mice then were snap frozen in liquid nitrogen while under anesthesia, tumor tissue and brain (control organ) were removed, and phage were isolated as described above. Three rounds of in vivo panning were performed.
The amino acid sequences were determined for the inserts in 89 cloned phage recovered from the B16B15b tumors. The peptides expressed by these phage were represented by two predominant sequences, CLSGSLSC (SEQ ID NO: 55; 52% of the clones sequenced) and WGTGLC (SEQ ID NO: 52; 25% of the clones; see Table 4).

brain [9] = test: Homing of 125I-peptide/RBC complex to brain, with peptide competition; assay type: in vivo, mouse; conditions: 10 mM unlabeled peptide
Method: The synthetic cyclic CLSSRLDAC (SEQ ID NO: 3) peptide (1 mg) was labeled with iodine-125 using the Bolton and Hunter reagent (Amersham; Arlington Heights IL). Labeled peptide was purified by reverse phase HPLC on Sep-Pak™ cartridges (Waters, Millipore Corp.; Milford PA) and the ^125I-peptide (200 µg) was coupled to 1 ml glutaraldehyde-stabilized sheep RBC (Sigma Chemical Co.; St. Louis MO) according to the manufacturer's instructions.
Fifty µl ^125I-peptide/RBC (200,000 cpm), alone or with 10 mM of unlabeled CLSSRLDAC (SEQ ID NO: 3), which is a brain homing peptide, or CVRLNSLAC (SEQ ID NO: 43), which has no brain homing activity, was injected into the tail vein. After 2 min, each mouse was perfused through the heart with 50 ml DMEM and the brain and kidney were removed and assayed for radioactivity.

## ACDCRGDCFCG
[1]
  reduction of the amount of RGD phage in the tumor by coinjected free peptide: about tenfold

## CDCRGDCFC
[2]; 1 x 10^9 phage iv, 4 min
  phage detected in the breast tumor as compared to brain and kidney: 2-3 times
[2]; breast tumors
  immunohistochemical staining for the phage in the tumor: accumulation of the RGD phage in the blood vessels within the tumor
[2]
  RGD phage as compared to unselected control phage accumulated in the tumor: 80 fold
[2]; listed as RGD phage
  RGD phage as compared to unselected control phage accumulated in the tumor: twenty- to eighty-fold
[2]; mouse, in vivo
  staining for the phage in brain or kidney (control organs): no staining

## CENWWGDVC (displayed on phage)
Brain [3]
  ratio of selective homing (brain:kidney): ~4
Brain [4]
  (% PHAGE): 19% and 19.2%
  # PHAGE DISPLAYING SAME A.A. SEQUENCE: 14

## CGAREMC (displayed on phage)
Kidney [5]
  (% PHAGE): 17% and 16.7%
  # PHAGE DISPLAYING SAME A.A. SEQUENCE: 8
Kidney [6]
  ratio of selective kidney:brain homing: 3

## CGEACGGQCALPC [breast tumor homing peptide]
[7]
  % of total phage sequenced: 28.6%
  # clones: 4

## CGLMCQGACFDVC [peptide from phage recovered from human breast cancer]
[7]
  % of total phage sequenced: 7.1%
  # clones: 1

## CGRECPRLCQSSC [breast tumor homing peptide]
[7]
  % of total phage sequenced: 42.9%

## CKGRSSAC (cysteine pairing not given here; also: displayed on phage)
Kidney [5]
  (% PHAGE): 6.2%
Kidney [6]
  ratio of selective kidney:brain homing: 2

## CLPVASC (displayed on phage)
Kidney [5]
  (% PHAGE): 46% and 45.8%
  # PHAGE DISPLAYING SAME A.A. SEQUENCE: 22
Kidney [6]
  ratio of selective kidney:brain homing: 7

## CLSGSLSC (not fully specified; cysteine pairing not given here; also: displayed on phage)
melanoma
  immunostaining in the liver sinusoids and in spleen: immunostaining was detected
  immunostaining in the melanoma: Strong immunostaining
  staining in skin or in kidney samples: Essentially no staining
[8]
  # clones: 46
  % of total phage: 52%

## CNGRCVSGCAGRC [breast tumor homing peptide]
[7]
  % of total phage sequenced: 21.4%
  # clones: 3

## CNSRLHLRC (displayed on phage)
Brain [3]
  ratio of selective homing (brain:kidney): about 8
Brain [4]
  (% PHAGE): 21.9%
  # PHAGE DISPLAYING SAME A.A. SEQUENCE: 16

## CVRLNSLAC
Brain [9]
  effect of coadministered unlabeled peptide on brain homing of the CLSSRLDAC/RBC complex: no effect
  effect of coadministered unlabeled peptide on complex localizing to the kidney: no effect

## WRCVLREGPAGGCAWFNRHRL (displayed on phage)
Brain [3]
  ratio of selective homing (brain:kidney): ~9
Brain [4]
  (% PHAGE): 13.7%
  # PHAGE DISPLAYING SAME A.A. SEQUENCE: 10
